{
  "source": "patent US12630829B2",
  "about": "“Gene encoding cytochrome P450 and use thereof” (KUMIAI CHEMICAL INDUSTRY CO., LTD., priority 2020, dated 2026)",
  "key": {"[1]": {"tested_on": "KJ541960 (wheat-derived P450) co-expressed with TaCPR", "experiment": "In vitro drug metabolism test of KJ541960 protein against fenquinotrione", "assay_type": "in vitro ADME", "details": "test method and conditions of Example 1; KJ541960 reaction plot", "experimental": "It was verified by in vitro metabolism test whether or not a novel wheat-derived P450 of AK454412 is involved in herbicide metabolism. As a compound having high safety against wheat, fenquinotrione was used. […] A solution after completing the enzymatic reaction was centrifuged at 15,000 rpm for 1 minute, and the obtained supernatant was filtered through a 0.45 μm filter and then tested by LC/MS. LC/MS conditions were as follows:\nTherefore, synthesis of an artificial gene of the KJ541960 gene was requested of Eurofins Genomics K.K. Here, NdeI and EcoRI sites were respectively added to the 5′ and 3′ terminals of the CDS sequence of the gene. A DNA fragment of the KJ541960 gene was cleaved through NdeI/EcoRI treatment from the synthesized pEX-A2J2-KJ541960 plasmid, and was linked to pET-22b(+) vector, similarly having been subjected to NdeI/EcoRI treatment, with Ligation-Convenience Kit, and thus pET-22b-KJ541960 was produced (FIG. 13). […]\nIt is noted that the KJ541960 gene, synthesized as the artificial gene, was set to encode an amino acid sequence, in which a membrane anchoring region of the 35 N-terminal amino acid residues was removed, and the 6β sequence (MAKKTSS) was added as the same conditions as in the AK454412 gene. […] Besides, the intensity of the peak of the detected demethylated product was substantially the same in both the reaction plots. […]"}, "[2]": {"tested_on": "Arabidopsis thaliana having AK454412 forced expression", "experiment": "Fenquinotrione sensitivity test on MS solid medium, AK454412 forced expression", "assay_type": "in vivo", "details": "10,000 nM in MS solid medium, 22° C., about 10 days, evaluated subjectively", "experimental": "First, a binary vector, pMLH7133-AK454412_for At, for transforming Arabidopsis thaliana was produced. With the pET-22b-AK454412 produced in Example 1 used as a template, PCR was performed using a primer set of pMLH-tplb Xba IF (Fd) and pMLH-tplb Sac IF (Rv) to obtain a DNA fragment in which XbaI/SacI recognition sequence and 15 bases of In-Fusion recognition sequence were added to a terminal of full length CDS sequence of the AK454412 gene. The obtained DNA fragment and pMLH7133 vector, having been digested with the restriction enzymes XbaI/SacI, were linked to each other with In-Fusion HD Cloning Kit (Clontech) to produce a binary vector, pMLH7133-AK454412_for At, for transforming Arabidopsis thaliana (FIG. 8). The obtained construct was introduced into Agrobacterium EHA105 strain by an electroporation method. The transformation of Arabidopsis thaliana was performed by a floral dip method using this recombinant Agrobacterium.\nWith a sensitivity difference from wild type Arabidopsis thaliana used as an index, it was verified whether or not the created transformant had resistance to fenquinotrione. […] The sensitivity to this drug was evaluated subjectively in accordance with the degree of chlorosis of acting symptom. […]"}},
  "data": [
    {"smiles": "COc1ccc(-n2c(=O)c(C(=O)C3C(=O)CCCC3=O)nc3c(Cl)cccc32)cc1", "note": "[fenquinotrione]", "values": [
      {"measurement": "metabolism of fenquinotrione (production of demethylated product as index)", "setting": "[1]", "result": "a parent peak of fenquinotrione was reduced, and a peak of the demethylated product appeared"},
      {"measurement": "chlorosis symptom", "setting": "[2]", "result": "not observed"}
    ]}
  ]
}
